Structures can show the parent of a compound that is named as a salt. Where two headings read alike, the source gives them in different places. Values belong to the compound of their own block, whether it stands above or below them.
Columns and labels:
Fusobacterium nucleatum [1] = test: MIC microdilution assay; assay type: cell-based; conditions: for MIC: Fusobacterium nucleatum
[2] = tested on: Actinobacillus actinomycetemcomitans; test: MIC microdilution assay; assay type: cell-based; conditions: for MIC: Aggregatibacter actinomycetemcomitans
Streptococcus mutans [3] = test: MIC microdilution assay; assay type: cell-based; conditions: for MIC: Streptococcus mutans
Porphymonas gingivalis [4] = test: MIC microdilution assay; assay type: cell-based; conditions: for MIC: Porphyromonas gingivalis
[5] = tested on: S. aureus, E. coli, P. aeruginosa, and S. sanguis; conditions: isolated from H. canadensis; cited from earlier work
Streptococcus gordonii [6] = test: MIC microdilution assay; assay type: cell-based; conditions: for MIC: Streptococcus gordonii
test bacteria [7] = test: MIC microdilution assay, statements on all test bacteria; assay type: cell-based; conditions: read-out: Concentration without growth inhibition of the test bacteria (MIC bound)
A. actinomycetemcomitans = test: Relative cell surface hydrophobicity (hexanes partition); assay type: cell-based; conditions: agent alone 5 μg ml^−1
F. nucleatum [8] = test: as above; assay type: cell-based; conditions: agent alone 5 μg ml^−1
Staphylococcus aureus [9] = test: Combination determination (FIC, MIC in combination); assay type: cell-based; conditions: S. aureus; for Approximate amount of antibiotic required when combined with berberine relative to when the agent is used alone: fraction of the amount alone, HCl
Method: (§1) The alkaloids were tested in pair-wise combinations (fractional inhibitory concentrations, FIC) against all the bacteria to determine whether interactions were antagonistic (FIC>1), additive (0.5<FIC<1), or synergistic (FIC<0.5). The FIC was calculated by the following: (MIC Acombination/MIC Aalone)+(MIC Bcombination/MIC Balone). Where A represents compound 1 and B represents compound 2. […] In the case of A. actinomycetemcomitans and P. aeruginosa, CHX was used at 0.78 to 50 μg ml^−1. Berberine (B-CG and B-S) was used at concentrations 0.9 to 250 μg ml^−1. The antibacterial efficacy of berberine (1.95 to 500 μg ml^−1) was tested in combination against P. aeruginosa with CHX (0.78 to 50 μg ml^−1) (Sigma Chemicals) and the polymyxin antibiotic Col (0.04 to 25 μg ml^−1) (Sigma Chemicals). The plates were incubated for 24 hours.

Fusobacterium nucleatum [10] = test: as above; assay type: cell-based; conditions: F. nucleatum
Method: as §1

Streptococcus gordonii [11] = test: as above; assay type: cell-based; conditions: S. gordonii
Method: as §1

Porphymonas gingivalis [12] = test: as above; assay type: cell-based; conditions: P. gingivalis
Method: as §1

Escherichia coli [13] = test: as above; assay type: cell-based; conditions: E. coli
Method: as §1

[14] = tested on: Actinobacillus actinomycetemcomitans; test: as above; assay type: cell-based; conditions: A. actinomycetemcomitans grown under anaerobic conditions; berberine (B-CG) combined with CHX, Tet or Dox; MIC of the named agent in the combination
Method: as §1

test bacteria [15] = test: Relative cell surface hydrophobicity, statements on the test bacteria; assay type: cell-based; conditions: summary of Table 12
P. gingivalis = test: Relative cell surface hydrophobicity (hexanes partition); assay type: cell-based; conditions: agent alone 5 μg ml^−1
S. gordonii = test: as above; assay type: cell-based; conditions: agent alone 5 μg ml^−1
Escherichia coli [16] = test: MIC microdilution assay; assay type: cell-based; conditions: E. coli, agent alone, read-out: MIC of the antimicrobial agents alone
Streptococcus mutans [17] = test: Combination determination (FIC, MIC in combination); assay type: cell-based; conditions: S. mutans
Method: as §1
CHX was diluted from left to right at 10 to 0.08 μg ml^−1 ([…] 1 to 8), berberine was diluted from top to bottom at 250 to 0.09 μg ml^−1 ([…] 1 to 8). Column 9 was the cell control, column 10 was berberine alone (250 to 0.09 μg ml^−1); and column 11 was CHX alone (10 to 0.08 μg ml^−1). Row H was the solvent control (8% DMSO, H1 to H8). Column 12 was the media blank. The dilution assay was designed such that A1 contained the highest concentration of both agents (berberine 250 μg ml^−1 and CHX 10 μg ml^−1). The final concentration of berberine in wells A2 to A8 was […]. The FIC value was calculated from well C6. FIC was calculated by: (MIC Acombination/MIC Aalone)+(MIC Bcombination/MIC Balone).

F. nucleatum [18] = test: Viability assessment (bactericidal activity); assay type: cell-based
Method: Two representative organisms, S. mutans and F. nucleatum, were used in this study. […] Aliquots of 4 ml of agent, prepared in sterile water, were placed into sterile test tubes and 1 ml of adjusted cells was added. The control consisted of 4 ml of PBS and 1 ml of cells. Samples were removed at 0, 15, 30, and 60 minutes, serial dilutions were performed, and the appropriate dilutions plated out. The plates were incubated at 37° C. under appropriate atmospheric conditions for up to 72 hours. Viable colony counts were determined and compared to nontreated control Percentage kill was calculated using the formula: ([…]×100. Log reduction was also calculated on Log10 transformed data. Effect of Berberine on Cell Surface Hydrophobicity

oral pathogens = test: Combination determination, statements on the oral pathogens; assay type: cell-based; conditions: berberine hydrochloride / berberine (B-CG and B-S)
Method: as §1

S. mutans = test: Relative cell surface hydrophobicity (hexanes partition); assay type: cell-based; conditions: agent alone 5 μg ml^−1
Staphylococcus aureus [19] = test: MIC microdilution assay; assay type: cell-based; conditions: S. aureus, agent alone, read-out: MIC of the antimicrobial agents alone
[20] = read-out: MIC of Goldenseal Alkaloids Against Selected Oral Pathogens
[21] = berberine (B-CG) combined with CHX, Tet or Dox, MIC of the named agent in the combination
[22] = berberine hydrochloride / chloride

MIC of Goldenseal Alkaloids Against Selected Oral Pathogens (Fusobacterium nucleatum [1]; Fn, F. nucleatum): >250 µg/mL | MIC of Goldenseal Alkaloids Against Selected Oral Pathogens ([2]; Aa, A. actinomycetemcomitans): >250 µg/mL | MIC of Goldenseal Alkaloids Against Selected Oral Pathogens (Streptococcus mutans [3]; Sm, S. mutans): >250 µg/mL | MIC of Goldenseal Alkaloids Against Selected Oral Pathogens (Porphymonas gingivalis [4]; Pg, P. gingivalis): >250 µg/mL | MIC of Goldenseal Alkaloids Against Selected Oral Pathogens (Streptococcus gordonii [6]; Sg, S. gordonii): >250 µg/mL
SMILES: COc1ccc(C[C@@H]2c3cc4c(cc3CCN2C)OCO4)c(C=O)c1OC [Canadaline, canadaline]
Antibacterial activity [5]: antimicrobial at comparable concentrations to berberine

SMILES: COc1ccc2c(c1OC)CN1CCc3cc4c(cc3[C@@H]1C2)OCO4 [Canadine, canadine]
MIC (Fusobacterium nucleatum [1]; [20]): > 500 µg/mL | MIC [2, 20]: > 500 µg/mL | MIC (Streptococcus mutans [3]; [20]): > 500 µg/mL | MIC (test bacteria [7]): > 250 µg/mL | MIC (Porphymonas gingivalis [4]; [20]): > 500 µg/mL | Antibacterial activity [5]: antimicrobial at comparable concentrations to berberine | MIC (Streptococcus gordonii [6]; [20]): > 500 µg/mL

SMILES: C[C@H]1c2cccc(O)c2C(=O)C2=C(O)[C@]3(O)C(=O)C(C(N)=O)=C(O)[C@@H](N(C)C)[C@@H]3[C@@H](O)[C@@H]21 [Dox, doxycycline HCl]
MIC (Fusobacterium nucleatum [1]; F. nucleatum, agent alone, read-out: MIC of the antimicrobial agents alone): 0.04 µg/mL | MIC ([2]; A. actinomycetemcomitans grown under anaerobic conditions, agent alone, read-out: MIC of the antimicrobial agents alone): 6.25 µg/mL | Typical reduction scores on relative cell surface hydrophobicity (A. actinomycetemcomitans): −4.1% | Typical reduction scores on relative cell surface hydrophobicity (F. nucleatum [8]): −3.5% | MIC of the antimicrobial agents in combination (Staphylococcus aureus [9]; [21]): 0.39 µg/mL | Growth inhibition effect when combined with berberine (Staphylococcus aureus [9]; [22]): synergistic | Approximate amount of antibiotic required when combined with berberine relative to when the agent is used alone (Staphylococcus aureus [9]; listed as Doxycycline (HCL)): ⅕ | Approximate amount of antibiotic required when combined with berberine relative to when the agent is used alone (Staphylococcus aureus [9]; listed as Doxycycline-HCl): ½ | MIC of the antimicrobial agents in combination (Fusobacterium nucleatum [10]; [21]): 0.10 µg/mL | Approximate amount of antibiotic required when combined with berberine relative to when the agent is used alone (Fusobacterium nucleatum [10]; fraction of the amount alone): ¼ | MIC of the antimicrobial agents in combination (Streptococcus gordonii [11]; [21]): 0.08 µg/mL | Approximate amount of antibiotic required when combined with berberine relative to when the agent is used alone (Streptococcus gordonii [11]; fraction of the amount alone): <¼ | MIC of the antimicrobial agents in combination (Porphymonas gingivalis [12]; [21]): 0.01 µg/mL | Approximate amount of antibiotic required when combined with berberine relative to when the agent is used alone (Porphymonas gingivalis [12]; fraction of the amount alone): ¼ | MIC of the antimicrobial agents in combination (Escherichia coli [13]; [21]): 0.77 µg/mL | Growth inhibition effect when combined with berberine (Escherichia coli [13]; [22]): synergistic | Approximate amount of antibiotic required when combined with berberine relative to when the agent is used alone (Escherichia coli [13]; fraction of the amount alone): ½ | MIC of the antimicrobial agents in combination [14]: 6.25 µg/mL | Effect on the relative hydrophobicity of the cells (test bacteria [15]): did not appear to affect | Typical reduction scores on relative cell surface hydrophobicity (P. gingivalis): 1.7% | MIC (Streptococcus mutans [3]; S. mutans, agent alone, read-out: MIC of the antimicrobial agents alone): 0.78 µg/mL | Typical reduction scores on relative cell surface hydrophobicity (S. gordonii): 7.7% | MIC (Porphymonas gingivalis [4]; P. gingivalis, agent alone, read-out: MIC of the antimicrobial agents alone): 0.08 µg/mL | MIC (Escherichia coli [16]): 1.53 µg/mL | MIC of the antimicrobial agents in combination (Streptococcus mutans [17]; [21]): 0.20 µg/mL | Approximate amount of antibiotic required when combined with berberine relative to when the agent is used alone (Streptococcus mutans [17]; fraction of the amount alone): ¼ | Reduction of the concentration required for comparable reduction in viability when used in combination (F. nucleatum [18]; Dox (5 μg ml^−1), berberine (250 μg ml^−1)): one-half | Viability after 60 min exposures (mean Log10 reduction of CFU) (F. nucleatum [18]; Dox (10)): 1.56 Log10 | Growth inhibition effect when combined with berberine (oral pathogens): synergistic | Typical reduction scores on relative cell surface hydrophobicity (S. mutans): 8.1% | MIC (Streptococcus gordonii [6]; S. gordonii, agent alone, read-out: MIC of the antimicrobial agents alone): 0.31 µg/mL | MIC (Staphylococcus aureus [19]): 1.53 µg/mL

SMILES: COc1ccc2c(c1OC)C(=O)O[C@@H]2[C@H]1c2cc3c(cc2CCN1C)OCO3 [Hydrastine, hydrastine]
MIC (Fusobacterium nucleatum [1]; [20]): > 500 µg/mL | MIC [2, 20]: > 500 µg/mL | MIC (Streptococcus mutans [3]; [20]): > 500 µg/mL | MIC (test bacteria [7]): > 500 µg/mL | MIC (Porphymonas gingivalis [4]; [20]): > 500 µg/mL | MIC (Streptococcus gordonii [6]; [20]): > 500 µg/mL
